As usually defined, the pIC50 is −log10 of the IC50, conventionally taken in molar units.

pIC50: −log10 of the molar value. Entries after “also recorded” stand apart in the source; their conditions may differ. Counter-ions that a name gives are not always drawn.

Experiment [1] relates to Human Foreskin Fibroblasts (HFF). The experiment is described as follows: Toxicity against Human Foreskin Fibroblasts. Format: cell-based. As to conditions: Fibroblast.
The next experiment relates to HEpG2 cells. Description: Toxicity against human HEpG2 cells. Format: cell-based. To be noted: toxicity against human cell line.
A further experiment deals with PvPMV (Plasmodium vivax, UniProt A5K302). The experiment is described as follows: PEXEL cleavage assay with immunopurified PvPMVHA and fluorogenic KAHRP PEXEL peptide. Format: biochemical.
In the next experiment the test system is signal peptidase. The experiment is described as follows: Signal peptide cleavage of SERA5s-GFP in parasites by immunoblot. Format: cell-based, Plasmodium falciparum. As to conditions: for Signal peptide cleavage of SERA5s-GFP, in words: 20 µM for 5 h. Here is the method: This protein contains a signal peptide but lacks a PEXEL and is efficiently secreted to the parasitophorous vacuole (Figure S3B).
(§1) Trophozoites (30–34 h) expressing PfEMP3-GFP, KAHRP-GFP, or SERA5s-GFP were magnet-purified (Miltenyi Biotech), incubated with inhibitors in 400 µl total volume at 37°C for 1–5 h, treated with 0.09% saponin containing inhibitor, and washed pellets were solubilized in Laemmli's buffer, boiled for 3 min, and frozen at −20°C. Proteins were separated by SDS-PAGE, transferred to nitrocellulose and blocked in 10% skim milk/PBS-T, and probed with rat α-HA (Roche 3F10; 1∶1,000), mouse α-GFP (Roche; 1∶1,000), rabbit α-Aldolase (1∶1,000), rabbit α-HSP70 (1∶4,000), rabbit α-PfPMV (1∶1,000), or rabbit α-Hyp8 (1∶500) primary antibodies followed by horseradish peroxidase-conjugated secondary antibodies (Silenius) and detected by enhanced chemiluminescence (Amersham).
A general note: A western blot detects proteins with antibodies after separation by electrophoresis.

Experiment [2] relates to PfEMP1 surface expression, CS2-GFP parasites. The experiment is described as follows: PfEMP1 (VAR2CSA) surface display on infected erythrocytes by flow cytometry with PAM1.4. To be noted: 15 µM 23 h or 50>15 µM. Format: cell-based, Plasmodium falciparum. Here is the method: As 916 treatment has adverse affects on parasites after 24 h, a sublethal dosing regime was developed (see Figure S7) to maximize the inhibitor effect while ensuring parasites remained viable 24 h postinvasion when surface-exposed PfEMP1 was measured. Treatment with >15 µM for 23 h or with 50 µM for >12 h postinvasion prior to decreasing to 15 µM adversely affected parasite growth and was avoided.
To measure PfEMP1 display, highly synchronous ring-stage CS2-GFP parasites preferentially expressing VAR2CSA (see Plasmids, Parasites, and Antibody Production) were obtained by incubation of erythrocytes with viable merozoites for 15 min [47], and parasites were treated with 916, 025, or DMSO using the dosage regime above. […] Labeled cells were washed with 0.1% casein/PBS and analyzed on a FACSCalibur cytometer (Becton-Dickinson, USA). Fluorescence in channel FL1 was used to measure parasite-infected erythrocytes (GFP), and fluorescence in channel FL4 was used to measure bound PAM1.4 IgG antibodies (Alexa 633) for each sample. The geometric mean fluorescence of uninfected erythrocytes (treated with secondary and tertiary but not primary antibodies) was deducted from the geometric mean fluorescence of infected erythrocytes using >100,000 cells per condition. […]

The test system of experiment [3] is EXP2 secretion in P. falciparum–infected erythrocytes. Description: EXP2 secretion to the parasitophorous vacuole membrane. As to conditions: 20 or 50 µM, 13 h. Format: cell-based, Plasmodium falciparum. Here is the method:
(§2) For quantification of events in cells infected with parasites expressing Hyp8-GFP, highly synchronous ring-stage parasites engineered to express Hyp8-GFP from the CRT promoter were obtained by incubation of erythrocytes with viable merozoites for 15 min [47] and treated with 20 or 50 µM 916 30 min postinvasion for 13 h (until Hyp8-GFP expression from the CRT promoter had occurred for 1 h). Smears were fixed in 90∶10 acetone∶methanol, labeled with anti-GFP and anti-EXP2 antibodies, and Z-stacks captured on a Deltavision Elite microscope using a 100× objective. Over 40 Z-stacks per condition were imaged using the same exposure settings to allow quantitative analysis between groups.
The EXP2 signal was measured by masking the infected cell using a watershed transform on the summed and filtered red signal, seeded by the DAPI-positive parasite.

For experiment [4], the system named is P. falciparum NF54 expressing PMVHA-glmS. Description: Dose-response growth assay of parasites expressing PMVHA-glmS or PMVHA-M9 with or without GlcN. Format: cell-based, Plasmodium falciparum. The method, then:
Parasites expressing PMVHA-glmS were next assessed for toxicity to 916.
(§3) In the case of dose-response curves, medium was kept for the entire experiment; in the case of curves in Figure 4B,C, medium was replaced with inhibitor-free medium at 48 h postinfection. Parasitaemia was always determined at 72 h by flow cytometry. To knock down PMV, GlcN (Sigma) was added to trophozoites and drug curves initiated by adding compound at subsequent rings (24 h) for 24–72 h.

The subject of experiment [5] is Hyp8-GFP export in P. falciparum–infected erythrocytes. The experiment is described as follows: Quantification of Hyp8-GFP export and Maurer's clefts by immunofluorescence microscopy. Format: cell-based, Plasmodium falciparum. Here is the method: as §2
A parasite mask was generated by combining the signals from the maximum intensity projections of the nuclear (DAPI) and parasitophorous vacuole membrane (EXP2) images and setting a manual threshold. A whole infected erythrocyte mask was produced by manually tracing the cell boundary using the DIC image. Average GFP intensity measurements were determined on masked summed intensity projections of the GFP images using MetaMorph Image Analysis suite (Molecular Devices, USA). Ratios of the average intensity measurements of GFP inside the parasite (inside EXP2) versus exported to the erythrocyte (outside EXP2) were determined.
Clefts were counted using ImageJ's “Find Maxima” function to detect local maxima in the green signal within the masked cell region.

The target of experiment [6] is T1, PMV in P. falciparum expressing PMVHA-glmS (Plasmodium falciparum, UniProt Q8I6Z5).
T1 construct: incorporated in frame at the 3′ of the PMV locus by homologous recombination; expressed in transfected cells; host or cells: P. falciparum NF54 with pPMVHA-glmS integrated at the PMV locus, also transfected with PfEMP3-GFP
Description: PEXEL processing of PfEMP3-GFP in PMVHA-glmS parasites with PMV knockdown, immunoblot. In kind it is cell-based. As to conditions: 20 µM 916, 5 h. The method, then:
As 916 inhibited PMV in parasites (for example, by 13-fold, Figure 3G), the additive effect of PMV knockdown plus 916 treatment was investigated. Parasites expressing PMVHA-glmS were transfected with a construct encoding PfEMP3-GFP, and PEXEL processing was assessed by immunoblot.
as §1

In a further experiment the target is Cathepsin D (Homo sapiens, UniProt P07339). Description: Off-target activity against human aspartyl protease Cathepsin D. Format: biochemical. As to conditions: read-out: IC50 CathD.
Experiment [7] has as its system P. falciparum overexpressing PvPMVHA. The experiment is described as follows: Dose-response growth assay of parasites overexpressing PvPMVHA. Format: cell-based, Plasmodium falciparum. The method, then:
We next investigated the possible effects of PMV overexpression on parasite sensitivity to 916. […] To control for the carriage of episomes and selection on WR99210, sensitivity to 916 was compared between parasites overexpressing a similar construct on episomes on WR99210 selection (encoding miniVarHA; see Figure 1F).
as §3

PvPMV, sequence (A5K302 35-536): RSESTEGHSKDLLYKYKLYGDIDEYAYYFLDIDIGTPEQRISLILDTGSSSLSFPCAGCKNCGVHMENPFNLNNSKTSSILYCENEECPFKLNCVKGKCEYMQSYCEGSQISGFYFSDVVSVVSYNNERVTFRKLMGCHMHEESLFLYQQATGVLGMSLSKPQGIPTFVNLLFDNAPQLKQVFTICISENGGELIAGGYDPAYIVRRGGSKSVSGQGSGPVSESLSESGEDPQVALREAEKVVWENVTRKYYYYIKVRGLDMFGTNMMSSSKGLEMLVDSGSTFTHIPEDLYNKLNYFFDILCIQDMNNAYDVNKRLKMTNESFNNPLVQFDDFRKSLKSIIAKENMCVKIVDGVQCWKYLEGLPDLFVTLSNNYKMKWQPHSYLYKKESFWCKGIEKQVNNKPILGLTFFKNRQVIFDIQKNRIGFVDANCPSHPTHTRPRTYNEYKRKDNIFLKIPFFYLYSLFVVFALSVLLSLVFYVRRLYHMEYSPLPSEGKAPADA
T1 sequence (Q8I6Z5 whole entry): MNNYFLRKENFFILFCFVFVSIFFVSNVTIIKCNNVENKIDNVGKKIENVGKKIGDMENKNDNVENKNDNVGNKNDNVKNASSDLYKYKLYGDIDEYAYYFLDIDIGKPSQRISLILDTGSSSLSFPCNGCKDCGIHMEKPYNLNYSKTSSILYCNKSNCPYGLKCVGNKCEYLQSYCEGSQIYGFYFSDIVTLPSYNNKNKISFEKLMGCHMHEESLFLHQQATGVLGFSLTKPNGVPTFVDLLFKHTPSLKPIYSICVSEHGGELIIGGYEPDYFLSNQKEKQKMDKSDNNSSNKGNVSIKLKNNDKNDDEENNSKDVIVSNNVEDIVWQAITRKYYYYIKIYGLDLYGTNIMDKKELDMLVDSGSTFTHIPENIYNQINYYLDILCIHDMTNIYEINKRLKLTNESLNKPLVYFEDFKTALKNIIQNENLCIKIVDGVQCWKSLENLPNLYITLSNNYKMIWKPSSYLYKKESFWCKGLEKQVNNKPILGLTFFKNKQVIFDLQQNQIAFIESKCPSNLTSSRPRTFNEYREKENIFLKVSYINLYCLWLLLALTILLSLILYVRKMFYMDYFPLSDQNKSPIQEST
Cathepsin D, sequence (P07339 65-412): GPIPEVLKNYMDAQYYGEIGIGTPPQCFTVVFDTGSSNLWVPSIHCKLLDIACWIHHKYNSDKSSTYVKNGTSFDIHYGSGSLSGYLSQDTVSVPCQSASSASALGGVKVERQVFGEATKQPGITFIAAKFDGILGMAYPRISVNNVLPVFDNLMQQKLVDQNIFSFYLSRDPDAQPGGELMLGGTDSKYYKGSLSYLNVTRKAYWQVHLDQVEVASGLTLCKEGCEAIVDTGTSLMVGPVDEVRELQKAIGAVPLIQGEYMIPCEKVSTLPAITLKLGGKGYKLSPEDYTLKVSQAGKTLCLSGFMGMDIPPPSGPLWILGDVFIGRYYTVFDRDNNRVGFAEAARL

In the case of `CC[C@H](C)[C@H](NC(=O)[C@@H](NC(=O)[C@H](CCCNC(=N)N)NS(=O)(=O)Cc1ccccc1)C(C)C)[C@@H](O)CC(=O)NCCc1ccccc1` [compound 025, PhCH2SO2Arg-Val-AHMHpA-NH(CH2)2Ph . TFA], the negative-log IC50 (pIC50) in experiment [1] was less than 4.00; with HEpG2 cells, less than 4.00; at PvPMV, 5.75. In addition, at PvPMV, the “Activity against PvPMVHA, in words” value is “weak activity”. In the experiment with signal peptidase, the “Signal peptide cleavage of SERA5s-GFP, in words” value is “no defect”. In the experiment with signal peptidase (concentrations up to 50 µM), the “Effect on PMV or signal peptidase activity in parasites, in words” value is on record as “no affect”. For the same compound, the “Effect on PfEMP1 surface expression, in words” value in experiment [2] was “no effect”.

Regarding `CC(C)C[C@H](NC(=O)[C@@H](NC(=O)[C@H](CCCNC(=N)N)NS(=O)(=O)Cc1ccccc1)C(C)C)[C@@H](O)CC(=O)NCCc1ccccc1` [compound 916, PhCH2SO2-Arg(NH2)-Val-Sta-NH(CH2)2Ph .TFA], in experiment [3], the “EXP2 signal at the parasitophorous vacuole membrane, in words” value is recorded as “no statistical difference”. Also, in [4] (PMVHA-M9 (inactive glmS), with versus without GlcN), the “Decrease in EC50 in presence of GlcN, PMVHA-M9 control” value came out at 1.4 fold. For the same compound, in [4] (PMVHA-glmS, 6 mM GlcN versus no GlcN, 72 h), the “Decrease in EC50 following PMV knockdown” value was determined as 3.3 fold. The pIC50 in experiment [1] is less than 4.00; in the experiment on HEpG2 cells it was less than 4.00; on Cathepsin D it was 4.60. Further, the “Nonexported Hyp8-GFP signal inside EXP2, in words” value in experiment [5] (20 or 50 µM, 13 h) is “small but significant increase in nonexported GFP signal”. In [5] (20 or 50 µM, 13 h from 30 min postinvasion), the “Hyp8-GFP in Maurer's clefts (exported), in words” value was “dose-dependent decrease of Hyp8-GFP in MCs”. The “Reduction of mean number of GFP-positive Maurer's clefts” value in experiment [5] (compared to DMSO) is recorded as “up to 39%”. Further, in experiment [6], the “Enhancement of PEXEL cleavage impairment following PMV knockdown” value is on record as 50%. Also, the “Signal peptide cleavage of SERA5s-GFP, in words” value with signal peptidase is listed as “no defect; also recorded: did not impair processing of the signal peptide”. For the same compound, the “Decrease of PfEMP1 surface expression” value in experiment [2] (24 h postinvasion) is “up to 55%”. Also, in experiment [7] (5 nM WR99210 selection), the “Increase in EC50 with PvPMVHA overexpression versus miniVarHA control” value was determined as 1.9 fold. The “Increase in EC50 with PvPMVHA overexpression versus wild-type 3D7” value in experiment [7] (wild-type 3D7 without WR99210 selection) was found to be 1.4 fold.
